Laboratory results published in the NIST ThermoML archive (doi:10.1016/j.jct.2016.04.006).
Numbers after ± are expanded uncertainties.

How the values were obtained:
[1] = mn = molality of the nth substance listed, in mol/kg; conditions: 100 kPa, Liquid, Capillary tube (Ostwald / Ubbelohde) method
[2] = 100 kPa, Liquid, Capillary tube (Ostwald / Ubbelohde) method

NCC(=O)O [2-aminoacetic acid] + O
viscosity [mPa·s], [1]
Conditions	m1 = 0.05	m1 = 0.15	m1 = 0.25	m1 = 0.35	m1 = 0.5
288.15 K	1.146 ± 0.021	1.16 ± 0.033	1.175 ± 0.022	1.19 ± 0.022	1.213 ± 0.022
298.15 K	0.896 ± 0.021	0.909 ± 0.021	0.921 ± 0.021	0.934 ± 0.021	0.953 ± 0.021
308.15 K	0.723 ± 0.021	0.735 ± 0.021	0.745 ± 0.021	0.755 ± 0.021	0.77 ± 0.021
318.15 K	0.603 ± 0.02	0.609 ± 0.021	0.618 ± 0.022	0.626 ± 0.021	0.639 ± 0.021

CO[C@H]1O[C@H](CO)[C@@H](O)[C@H](O)[C@@H]1O [α-methyl mannopyranoside] + O
viscosity [mPa·s], [1]
Conditions	m1 = 0.0569	m1 = 0.0853	m1 = 0.1142	m1 = 0.1318	m1 = 0.1443
288.15 K	1.172 ± 0.021	1.188 ± 0.022	1.208 ± 0.022	1.217 ± 0.022	1.229 ± 0.022
298.15 K	0.913 ± 0.021	0.925 ± 0.021	0.942 ± 0.021	0.95 ± 0.021	0.96 ± 0.023
308.15 K	0.742 ± 0.021	0.75 ± 0.021	0.756 ± 0.021	0.765 ± 0.021	0.77 ± 0.021
318.15 K	0.61 ± 0.02	0.619 ± 0.02	0.625 ± 0.021	0.633 ± 0.021	0.636 ± 0.021

OC[C@H]1O[C@@H](O[C@H]2[C@H](O)[C@@H](O)[C@H](O)O[C@@H]2CO)[C@H](O)[C@@H](O)[C@@H]1O [D-cellobiose] + O
viscosity [mPa·s], [1]
Conditions	m1 = 0.0529	m1 = 0.0639	m1 = 0.0903	m1 = 0.1292	m1 = 0.1479	m1 = 0.1603
288.15 K	1.193 ± 0.022	1.203 ± 0.022	1.231 ± 0.022	1.269 ± 0.022	1.286 ± 0.022	1.3 ± 0.023
298.15 K	0.928 ± 0.021	0.941 ± 0.021	0.961 ± 0.021	0.99 ± 0.022	1.001 ± 0.022	1.011 ± 0.024
308.15 K	0.748 ± 0.021	0.757 ± 0.021	0.771 ± 0.021	0.796 ± 0.021	0.807 ± 0.021	0.813 ± 0.022
318.15 K	0.621 ± 0.021	0.625 ± 0.021	0.64 ± 0.021	0.657 ± 0.021	0.664 ± 0.021	0.67 ± 0.021

O=C[C@H](O)[C@@H](O)[C@H](O)[C@H](O)CO [D-glucose] + O
viscosity [mPa·s], [1]
Conditions	m1 = 0.0523	m1 = 0.0745	m1 = 0.0885	m1 = 0.1034	m1 = 0.1197	m1 = 0.142
288.15 K	–	1.183 ± 0.022	1.185 ± 0.022	1.192 ± 0.022	1.205 ± 0.022	1.219 ± 0.022
298.15 K	0.911 ± 0.021	0.921 ± 0.021	0.926 ± 0.021	0.933 ± 0.021	0.938 ± 0.021	0.948 ± 0.022
308.15 K	0.735 ± 0.021	0.743 ± 0.021	0.747 ± 0.021	0.751 ± 0.021	0.756 ± 0.021	0.762 ± 0.021
318.15 K	0.609 ± 0.02	0.614 ± 0.02	0.618 ± 0.02	0.621 ± 0.02	0.625 ± 0.021	0.63 ± 0.021

O=C[C@@H](O)[C@@H](O)[C@H](O)[C@H](O)CO [D-mannose] + O
viscosity [mPa·s], [1]
Conditions	m1 = 0.0607	m1 = 0.0751	m1 = 0.0977	m1 = 0.1215	m1 = 0.134	m1 = 0.1525	m1 = 0.1822
288.15 K	–	1.183 ± 0.022	1.195 ± 0.022	1.207 ± 0.022	1.216 ± 0.022	1.224 ± 0.022	1.243 ± 0.022
298.15 K	–	0.921 ± 0.021	0.931 ± 0.021	0.94 ± 0.021	0.945 ± 0.021	0.954 ± 0.021	0.966 ± 0.022
308.15 K	0.739 ± 0.021	0.744 ± 0.021	0.749 ± 0.021	0.757 ± 0.021	0.76 ± 0.021	0.767 ± 0.021	0.776 ± 0.021
318.15 K	0.61 ± 0.02	0.614 ± 0.02	0.62 ± 0.02	0.625 ± 0.021	0.629 ± 0.021	0.635 ± 0.021	0.64 ± 0.021

OC[C@@H](O)[C@@H](O)[C@H](O)[C@H](O)CO [D-mannitol] + O
viscosity [mPa·s], [1]
Conditions	m1 = 0.0578	m1 = 0.0701	m1 = 0.0837	m1 = 0.12	m1 = 0.1409	m1 = 0.1659	m1 = 0.1943
288.15 K	1.181 ± 0.022	1.19 ± 0.022	1.199 ± 0.022	1.224 ± 0.022	1.236 ± 0.022	1.254 ± 0.022	1.278 ± 0.022
298.15 K	0.919 ± 0.021	0.928 ± 0.021	0.935 ± 0.021	0.949 ± 0.021	0.959 ± 0.021	0.974 ± 0.021	0.986 ± 0.022
308.15 K	0.741 ± 0.021	0.746 ± 0.021	0.753 ± 0.021	0.763 ± 0.021	0.771 ± 0.021	0.779 ± 0.021	0.791 ± 0.021
318.15 K	0.611 ± 0.02	0.617 ± 0.02	0.62 ± 0.02	0.629 ± 0.021	0.636 ± 0.021	0.644 ± 0.021	0.651 ± 0.021

O [water]
[2]
Conditions	viscosity [mPa·s]
288.15 K	1.138 ± 0.021
298.15 K	0.89 ± 0.021
308.15 K	0.719 ± 0.02
318.15 K	0.596 ± 0.02

C[C@@H](O)[C@@H](O)[C@H](O)[C@H](O)C=O [6-deoxy-D-mannose] + O
viscosity [mPa·s], [1]
Conditions	m1 = 0.0395	m1 = 0.0753	m1 = 0.1036	m1 = 0.1173	m1 = 0.1403
288.15 K	1.164 ± 0.021	1.183 ± 0.022	1.2 ± 0.022	1.208 ± 0.022	1.22 ± 0.022
298.15 K	0.91 ± 0.021	0.922 ± 0.021	0.933 ± 0.021	0.945 ± 0.021	0.951 ± 0.021
308.15 K	0.732 ± 0.021	0.744 ± 0.021	0.753 ± 0.021	0.759 ± 0.021	0.766 ± 0.021
318.15 K	0.607 ± 0.02	0.616 ± 0.02	0.623 ± 0.02	0.626 ± 0.021	0.633 ± 0.021
